In patent US8901118B2, “Compounds and methods for kinase modulation, and indications therefor” (Plexxikon Inc., priority 2010, dated 2014):

Assays:
Fms kinase = Fms kinase (Homo sapiens, UniProt P07333); assay: Fms kinase biochemical activity assay (AlphaScreen, biotin-(E4Y)10 phosphorylation); settings: 100 μM ATP; read-out: Biochemical Inhibition IC50 Fms
Method in brief: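 Fms kinase (1 ng/well) phosphorylating 30 nM biotin-(E4Y)10 with 100 μM ATP in 25 mM Hepes pH 7.5, MgCl2/MnCl2, 5% DMSO, 20 min at 30 °C. Phosphotyrosine detected by AlphaScreen streptavidin donor and PY20 acceptor beads; IC50 from signal versus compound concentration.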

BCR-NTRK2 BaF3 cells = biological target: T1, BCR-NTRK2 BaF3 cells (Homo sapiens, UniProt Q16620); assay: BaF3 BCR-NTRK2 cell proliferation assay (ATPlite); format: cell-based; settings: read-out: Inhibition of Cell Proliferation IC50, BCR/BaF3 TrkB
T1 construct: fused on or other part: P11274 (Breakpoint cluster region protein)
Method in brief: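 BaF3 cells expressing BCR fusions were plated at 10,000 cells/well without IL-3, and MV-4-11 cells at 25,000 cells/well. Cells were treated the next day with an 8-point 1:3 dilution series (top 10 μM final) and incubated 3 days at 37 °C. ATPlite luminescence gave cell number, from which IC50 was fitted.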

T1 sequence (Q16620 538-807): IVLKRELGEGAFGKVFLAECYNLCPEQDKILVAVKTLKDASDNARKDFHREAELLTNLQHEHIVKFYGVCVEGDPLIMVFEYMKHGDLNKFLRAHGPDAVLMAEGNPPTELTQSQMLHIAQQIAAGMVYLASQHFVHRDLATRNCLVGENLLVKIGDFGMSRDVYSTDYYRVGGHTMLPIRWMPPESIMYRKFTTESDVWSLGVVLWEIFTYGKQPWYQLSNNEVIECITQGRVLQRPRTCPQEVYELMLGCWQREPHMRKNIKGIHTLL
Chain of Fms kinase (P07333 20-972): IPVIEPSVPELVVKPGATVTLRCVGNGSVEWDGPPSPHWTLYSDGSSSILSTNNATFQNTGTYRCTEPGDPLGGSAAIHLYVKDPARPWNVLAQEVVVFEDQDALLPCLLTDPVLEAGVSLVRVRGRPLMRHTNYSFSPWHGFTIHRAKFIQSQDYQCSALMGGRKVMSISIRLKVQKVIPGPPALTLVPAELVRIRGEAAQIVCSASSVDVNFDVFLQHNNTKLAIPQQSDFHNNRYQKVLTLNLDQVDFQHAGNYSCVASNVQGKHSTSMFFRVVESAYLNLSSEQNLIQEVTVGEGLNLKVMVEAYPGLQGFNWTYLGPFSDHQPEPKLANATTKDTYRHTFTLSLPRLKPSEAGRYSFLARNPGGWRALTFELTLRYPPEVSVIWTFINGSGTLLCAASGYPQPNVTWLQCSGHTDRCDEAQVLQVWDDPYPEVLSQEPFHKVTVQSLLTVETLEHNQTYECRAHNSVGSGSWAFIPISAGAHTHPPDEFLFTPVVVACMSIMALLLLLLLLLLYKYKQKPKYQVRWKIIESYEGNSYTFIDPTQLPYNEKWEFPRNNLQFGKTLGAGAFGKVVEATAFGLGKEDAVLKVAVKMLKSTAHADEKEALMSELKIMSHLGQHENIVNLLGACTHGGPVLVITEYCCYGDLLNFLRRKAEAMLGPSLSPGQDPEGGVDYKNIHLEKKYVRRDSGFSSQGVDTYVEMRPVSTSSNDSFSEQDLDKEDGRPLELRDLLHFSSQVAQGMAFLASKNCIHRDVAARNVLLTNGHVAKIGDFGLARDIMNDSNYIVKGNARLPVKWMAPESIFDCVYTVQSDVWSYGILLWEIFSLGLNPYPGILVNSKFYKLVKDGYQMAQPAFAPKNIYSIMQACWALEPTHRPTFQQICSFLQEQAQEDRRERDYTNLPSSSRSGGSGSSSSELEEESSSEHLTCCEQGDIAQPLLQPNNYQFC

SMILES	IC50 (Fms kinase) [µM]	IC50 (BCR-NTRK2 BaF3 cells) [µM]
Cc1cnc2[nH]cc(Cc3cnc(Nc4ccc(C(O)(C(F)(F)F)C(F)(F)F)cc4)nc3)c2c1 [Compound P-3031, 1,1,1,3,3,3-Hexafluoro-2-{4-[5-(5-methyl-1H-pyrrolo[2,3-b]pyridin-3-ylmethyl)-pyrimidin-2-ylamino]-phenyl}-propan-2-ol]	< 1	< 0.01
COc1cc(Nc2ncc(Cc3c[nH]c4ncc(C)cc34)cn2)ccc1F [Compound P-3022, (4-Fluoro-3-methoxy-phenyl)-[5-(5-methyl-1H-pyrrolo[2,3-b]pyridin-3-ylmethyl)-pyrimidin-2-yl]-amine]	< 0.1	< 1
Fc1nc(NC2CCC(F)(F)CC2)ccc1Cc1c[nH]c2ncnc(NC3CC3)c12 [Compound P-4129, N-cyclopropyl-5-[[6-[(4,4-difluorocyclohexyl)amino]-2-fluoro-3-pyridyl]methyl]-7H-pyrrolo[2,3-d]pyrimidin-4-amine]	< 0.1	< 0.1
CCOc1ccc(Nc2ncc(Cc3c[nH]c4ncc(C)cc34)cn2)cc1 [Compound P-3026, (4-Ethoxy-phenyl)-[5-(5-methyl-1H-pyrrolo[2,3-b]pyridin-3-ylmethyl)-pyrimidin-2-yl]-amine]	< 0.01	< 0.1
CCOc1ccc(Nc2ncc(Cc3c[nH]c4ncc(C)cc34)cn2)cn1 [Compound P-3027, (6-Ethoxy-pyridin-3-yl)-[5-(5-methyl-1H-pyrrolo[2,3-b]pyridin-3-ylmethyl)-pyrimidin-2-yl]-amine]	< 0.01	< 1
COc1ccccc1Nc1ncc(Cc2c[nH]c3ncc(Cl)cc23)cn1 [Compound P-3016, [5-(5-Chloro-1H-pyrrolo[2,3-b]pyridin-3-ylmethyl)-pyrimidin-2-yl]-(2-methoxy-phenyl)-amine]	< 0.1	> 10
Cc1cnc2[nH]cc(Cc3cnc(Nc4cc(C5CC5)n[nH]4)nc3)c2c1 [Compound P-3032, (5-Cyclopropyl-2H-pyrazol-3-yl)-[5-(5-methyl-1H-pyrrolo[2,3-b]pyridin-3-ylmethyl)-pyrimidin-2-yl]-amine]	> 1	> 1
Cc1cncc(Nc2ccc(C(=O)c3c[nH]c4ncnc(C5CC5)c34)c(F)n2)c1 [Compound P-4039, (4-Cyclopropyl-7H-pyrrolo[2,3-d]pyrimidin-5-yl)-[2-fluoro-6-(5-methyl-pyridin-3-ylamino)-pyridin-3-yl]-methanone]	< 1	< 0.1
FC1(F)CCC(Nc2ncc(Cc3c[nH]c4ncc(Cl)cc34)cn2)CC1 [Compound P-3004]	< 0.01	< 10

Second part, the compound after the results:

IC50 (Fms kinase) [µM]	IC50 (BCR-NTRK2 BaF3 cells) [µM]	SMILES
< 0.01	< 0.01	CCc1ccc(Nc2ccc(Cc3c[nH]c4ncnc(C5CC5)c34)c(F)n2)cn1 [Compound P-4028, [5-(4-Cyclopropyl-7H-pyrrolo[2,3-d]pyrimidin-5-ylmethyl)-6-fluoro-pyridin-2-yl]-(6-ethyl-pyridin-3-yl)-amine]
< 0.01	< 0.1	COc1ccc(Nc2ccc(Cc3c[nH]c4ncnc(OC)c34)c(F)n2)cn1 [Compound P-4001, [6-Fluoro-5-(4-methoxy-7H-pyrrolo[2,3-d]pyrimidin-5-ylmethyl)-pyridin-2-yl]-(6-methoxy-pyridin-3-yl)-amine]
< 0.1	< 1	COc1ncnc2[nH]cc(Cc3ccc(Nc4ccc(Cl)nc4)nc3F)c12 [Compound P-4003, (6-Chloro-pyridin-3-yl)-[6-fluoro-5-(4-methoxy-7H-pyrrolo[2,3-d]pyrimidin-5-ylmethyl)-pyridin-2-yl]-amine]
< 0.01	< 1	CCn1cc(Nc2ccc(Cc3c[nH]c4ncnc(OCCOC)c34)c(F)n2)cn1 [Compound P-4014, (1-Ethyl-1H-pyrazol-4-yl)-{6-fluoro-5-[4-(2-methoxy-ethoxy)-7H-pyrrolo[2,3-d]pyrimidin-5-ylmethyl]-pyridin-2-yl}-amine]
< 1	< 0.1	CCOc1ncnc2[nH]cc(C(=O)c3ccc(Nc4ccc(OC)nc4)nc3F)c12 [Compound P-4025, (4-Ethoxy-7H-pyrrolo[2,3-d]pyrimidin-5-yl)-[2-fluoro-6-(6-methoxy-pyridin-3-ylamino)-pyridin-3-yl]-methanone]
< 0.01	< 0.1	Cc1ccc(Nc2ccc(Cc3c[nH]c4ncnc(C5CC5)c34)c(F)n2)cn1 [Compound P-4030, [5-(4-Cyclopropyl-7H-pyrrolo[2,3-d]pyrimidin-5-ylmethyl)-6-fluoro-pyridin-2-yl]-(6-methyl-pyridin-3-yl)-amine]
< 0.1	< 1	Cc1cncc(Nc2ccc(Cc3c[nH]c4ncnc(C5CC5)c34)c(F)n2)c1 [Compound P-4038, [5-(4-Cyclopropyl-7H-pyrrolo[2,3-d]pyrimidin-5-ylmethyl)-6-fluoro-pyridin-2-yl]-(5-methyl-pyridin-3-yl)-amine]
< 0.01	< 0.1	COc1ccc(Nc2ccc(Cc3c[nH]c4ncnc(C5CC5)c34)c(F)n2)cn1 [Compound P-4023, [5-(4-cyclopropyl-7H-pyrrolo[2,3-d]pyrimidin-5-ylmethyl)-6-fluoro-pyridin-2-yl]-(6-methoxy-pyridin-3-yl)-amine]
